# According to publication PMC8400257, “2-Phenoxy-3-Trichloromethylquinoxalines Are Antiplasmodial Derivatives with Activity against the Apicoplast of Plasmodium falciparum” (Pharmaceuticals, 2021):
# Key:
# Assay type in all cases: cell-based, Plasmodium falciparum
# [1] = system: quiescent ART-resistant F32-ART5 parasites; assay: Quiescent-stage survival assay (QSA); conditions: F32-ART5, DHA 700 nM 6 h then DHA + 3i 2.5 or 5 µM 48 h
# Description: Chemosensitivity evaluation of ART-resistant parasites at the quiescent stage was performed on the strain F32-ART5 thanks to the quiescent-stage survival assay (QSA). D-sorbitol synchronized ring-stages parasites at 3% parasitemia (2% hematocrit) were first exposed to 700 nM of dihydroartemisinin (DHA) for 6 h to induce quiescence of artemisinin-resistant parasites. Then, quiescent parasites were exposed or not (as control condition) to the drug to be tested for 48 h. After drug exposure, parasite cultures were washed with RPMI-1640 medium and replaced in normal drug-free culture conditions. The time to parasite recrudescence was determined as the time required to reach the 3% initial parasitemia. […] In each experiment, results obtained with the condition “DHA 6 h/DHA 48 h” were compared to those obtained with the condition “DHA 6 h/(DHA + drug to be tested) 48 h” in order to determine the delay in recrudescence time. […]
# (§1) 3. Studying the effect of (3i) on the liver stage development of P. falciparum Cryopreserved primary human hepatocytes were seeded in 96 well plates with a pre-determined seeding dose that gave a single dense layer of attached hepatocytes. […]
# (§2) The culture medium with or without drugs was refreshed every 48 hours and two independent plates were studied. […] Plates were subjected to quantification using an automated plate scanner. […]
# [2] = system: F32-ART5 and F32-TEM parasites; assay: Recrudescence assay; conditions: 48 h exposure; 2.5 µM 3i or 18 µM ART; log-rank Mantel-Cox test
# Description: Recrudescence assay was performed to evaluate the ability of the F32-ART5 parasites to survive drug exposure comparatively to the F32-TEM parasites. D-sorbitol synchronized ring-stages at 3% parasitemia (2% hematocrit) were exposed to drug for 48 h. After drug exposure, parasite cultures were washed with RPMI-1640 medium and replaced in normal drug-free culture conditions. The time to parasite recrudescence was determined as the time required to reach the 3% initial parasitemia. […] Each experiment was performed for F32-ART5 and F32-TEM and cultivated in parallel in the same conditions to generate paired results. This was carried out at least three times independently. A statistical analysis (log-rank Mantel–Cox test) was carried out on data thanks to a Kaplan–Meier survival analysis (using GraphPad Prism software) considering censored data.
# Figure S48. 13C NMR spectrum of 2i in CDCl3, on a Bruker ARX 101 spectrometer
# 2. […]
# as §1, §2
# [3] = system: K1 chloroquine and pyrimethamine-resistant P. falciparum strain; assay: In vitro antiplasmodial evaluation (SYBR Green I)
# Description: For all molecules, the selectivity index was calculated as following SI = CC50/EC50.
# It was maintained in continuous culture, as described previously by Trager and Jensen. Cultures were maintained in fresh A+ human erythrocytes at 2.5% hematocrit in complete medium (RPMI 1640 with 25 mM HEPES, 25 mM NaHCO3, 10% of A+ human serum) at 37 °C under reduced O2 atmosphere (gas mixture 10% O2, 5% CO2, and 85% N2). Parasitemia was maintained daily between 1 and 3%. The P. falciparum drug susceptibility test was carried out by comparing quantities of DNA in treated and control cultures of parasite in human erythrocytes according to an SYBR Green I fluorescence-based method using a 96-well fluorescence plate reader. Compounds, previously dissolved in DMSO (final concentration less than 0.5% v/v), were incubated in a total assay volume of 200 μL (RPMI, 2% hematocrit and 0.4% parasitemia) for 72 h in a humidified atmosphere (10% O2 and 5% CO2) at 37 °C, in 96-well flat bottom plates. Duplicate assays were performed for each sample. After incubation, plates were frozen at […] for 24 h. Then, the frozen plates were thawed for 1 h at 37 °C. Fifteen µL of each sample were transferred to 96-well flat bottom non-sterile black plates (Greiner Bio-one, Kremsmünster, Austria), already containing 15 µL of the SYBR Green I lysis buffer (2X SYBR Green I, 20 mM Tris base pH 7.5, 20 mM EDTA, 0.008% w/v saponin, 0.08% w/v Triton X-100). […] Plates were incubated for 15 min at 37 °C and then read on a TECAN Infinite F-200 spectrophotometer with excitation and emission wavelengths at 485 and 535 nm, respectively.
compound,measurement,setting,value
"O=[N+]([O-])c1ccc(Oc2nc3ccccc3nc2C(Cl)(Cl)Cl)cc1 [3i, 2-(4-Nitrophenoxy)-3-trichloromethylquinoxaline]","Activity on quiescent ART-resistant parasites (delay in recrudescence time, QSA)",[1],did not present any activity
same,Recrudescence of F32-ART5 compared with F32-TEM after drug exposure,[2],faster recrudescence
same,EC50,"[3]; Plasmodium falciparum, K1, 72 h, K1 strain, 72 h incubation, three independent experiments, read-out: EC50 PfK1 (µM) ± SD",0.2 ± 0.04 µM
same,SI (selectivity index),[3]; SI = CC50 HepG2/EC50 PfK1,160.0
